The record followed here is patent US20250228239A1, “MOLECULES HAVING PESTICIDAL UTILITY, AND INTERMEDIATES, COMPOSITIONS, AND PROCESSES, RELATED THERETO” (priority 2024, published 2025).

What all share (format): in vivo
In data set [1] the test system is Cabbage Looper (Trichoplusia ni, TRIPNI). Kind of data set: Bioassays on Cabbage Looper (CL), 128-well diet tray assay. The settings on record: Trichoplusia ni; for mortality at 50 µg/cm2: 168 h, second instar larvae, 50 μg/cm^2 of test molecule on artificial diet, 25° C., five to seven days, average of eight wells, read-out: CL % Control (or Mortality) rating. Put shortly:
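Each of eight wells receives artificial diet treated at 50 μg/cm^2 with the test molecule, then one to five second-instar larvae. Incubation runs five to seven days at 25° C with a 14:10 light-dark cycle under vented covers. Mortality is scored per well as a percentage and averaged.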

In data set [2] the test system is Yellow Fever Mosquito (Aedes aegypti, AEDSAE). To be noted: for YFM rating: Table ABC / ABC-DP rating; for YFM % Control (or Mortality) rating: about 1 day-old larvae, 4000 ppm master solution diluted with 90:10 water/acetone, 15 μL per well plus 220 μL larval mixture, 3 days. Put shortly:
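Mortality after 3 days at room temperature is the read-out, scored well by well and converted to a rating. Test molecules came from 4000 ppm stocks in DMSO, further diluted in 90:10 water/acetone, and were exposed to roughly 1-day-old larvae suspended in liver-powder water.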

Data set [3] concerns Beet Armyworm (Spodoptera exigua, LAPHEG). The experiment in a line: Bioassays on Beet Armyworm (BAW), 128-well diet tray assay. To be noted: Spodoptera exigua; for mortality at 50 µg/cm2: 168 h, second instar larvae, 50 μg/cm^2 of test molecule on artificial diet, 25° C., five to seven days, average of eight wells, read-out: BAW % Control (or Mortality) rating. The gist of the method:
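Larvae at second instar are exposed on dried, compound-treated diet (50 μg/cm^2, delivered in 90:10 acetone-water) in eight replicate wells. After five to seven days at 25° C., 14:10 light-dark, percent mortality in each well is scored and the eight wells averaged.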

[4] abbreviates: Cabbage Looper, Table ABC / ABC-DP rating, read-out: CL rating.
Setting [5] is: Beet Armyworm, Table ABC / ABC-DP rating, read-out: BAW rating.
Setting [6] is: Table ABC: Biological Results, species CL, read-out: CL.
[7] abbreviates: Table ABC: Biological Results, species YFM.
Setting [8] is: Table ABC: Biological Results, species BAW, read-out: BAW.
Where [9] appears, read: Cabbage Looper, rating class, read-out: CL.
Setting [10] is: Yellow Fever Mosquito, rating class.
[11] abbreviates: Beet Armyworm, rating class, read-out: BAW.

Like-named read-outs stand apart in the source and are kept apart here.

On to `Cc1cc(NC(=O)[C@H]2[C@H](c3ccc(F)c(Cl)c3)C2(Cl)Cl)cc(C(=O)NCC(F)(F)F)c1Cl` (relative stereo) [F2038, trans-2-Chloro-5-(2,2-dichloro-3-(3-chloro-4-fluorophenyl)cyclopropane-1-carboxamido)-3-methyl-N-(2,2,2-trifluoroethyl)benzamide], for which the pest or weed control at 50 µg/cm2 in data set [1] (setting [4]) and in data set [3] (setting [5]) was 50 to 100% in each case. Also, the YFM rating entry in data set [2] (Yellow Fever Mosquito) is reported as “A (80–100)”.

Turning to `C=Cc1ccc(NC(=O)c2cc(NC(=O)[C@H]3[C@H](c4cc(Cl)cc(Cl)c4)C3(Cl)Cl)ccc2Cl)c(F)c1` (relative stereo) [F1313, trans-2-Chloro-5-(2,2-dichloro-3-(3,5-dichlorophenyl)cyclopropane-1-carboxamido)-N-(2-fluoro-4-vinylphenyl)benzamide], the pest or weed control at 50 µg/cm2 in data set [1] (setting [6]) and in data set [3] (setting [8]) was 50 to 100% throughout. In data set [2] (setting [7]), the YFM entry is listed as “A (80–100)”.

Take `CN(C(=O)c1cc(NC(=O)[C@H]2[C@H](c3cc(Cl)cc(Cl)c3)C2(Cl)Cl)ccc1C#N)c1ccc(F)cc1F` (relative stereo) [F1039, trans-2-Cyano-5-(2,2-dichloro-3-(3,5-dichlorophenyl)cyclopropane-1-carboxamido)-N-(2,4-difluorophenyl)-N-methylbenzamide]: the pest or weed control at 50 µg/cm2 in data set [1] (setting [6]) and in data set [3] (setting [8]) was 50 to 100% in each case. Besides, the YFM result in data set [2] (setting [7]) is listed as “A (80–100)”.

Consider `O=C(NCCCCNC(=O)C(F)(F)F)c1cc(NC(=O)[C@H]2[C@H](c3cc(Cl)cc(Cl)c3)C2(Cl)Cl)ccc1Cl` (relative stereo) [F2095, trans-2-Chloro-5-(2,2-dichloro-3-(3,5-dichlorophenyl)cyclopropane-1-carboxamido)-N-(4-(2,2,2-trifluoroacetamido)butyl)benzamide], for which the pest or weed control at 50 µg/cm2 in data set [1] (setting [4]) and in data set [3] (setting [5]) was 50 to 100% throughout. In data set [2] (Yellow Fever Mosquito), the YFM rating entry is “A (80–100)”.

Regarding `O=C(Nc1c(F)ccc(NC(=O)c2cc(NC(=O)[C@H]3[C@H](c4ccc(F)c(C(F)(F)F)c4)C3(Cl)Cl)ccc2Cl)c1F)c1ccn(CC(F)(F)F)n1` [F1819, N-(3-(2-Chloro-5-((1R,3R)-2,2-dichloro-3-(4-fluoro-3-(trifluoromethyl)phenyl)cyclopropane-1-carboxamido)benzamido)-2,6-difluorophenyl)-1-(2,2,2-trifluoroethyl)-1H-pyrazole-3-carboxamide], the pest or weed control at 50 µg/cm2 in data set [1] (setting [4]) and in data set [3] (setting [5]) was 50 to 100% each time. Moreover, in data set [2] (Yellow Fever Mosquito), the YFM rating result is on record as “A (80–100)”.

For `CC(C#N)C(=O)Nc1c(F)ccc(NC(=O)c2cc(NC(=O)[C@H]3[C@H](c4ccc(F)c(C(F)(F)F)c4)C3(Cl)Cl)ccc2Cl)c1F` (stereo partly drawn) [F1755, 2-Chloro-N-(3-(2-cyanopropanamido)-2,4-difluorophenyl)-5-((1R,3R)-2,2-dichloro-3-(4-fluoro-3-(trifluoromethyl)phenyl)cyclopropane-1-carboxamido)benzamide], the pest or weed control at 50 µg/cm2 in data set [1] (setting [9]) and in data set [3] (setting [11]) was 50 to 100% each time. The YFM entry in data set [2] (setting [10]) is listed as “B (More than 0 – Less than 80)”.

As to `Nc1c(F)ccc(NC(=O)c2cc(NC(=O)[C@H]3[C@H](c4ccc(F)c(C(F)(F)F)c4)C3(Cl)Cl)ccc2Cl)c1F` [DP9, N-(3-amino-2,4-difluorophenyl)-2-chloro-5-((1R,3R)-2,2-dichloro-3-(4-fluoro-3-(trifluoromethyl)phenyl)cyclopropane-1-carboxamido)benzamide], the mortality at 50 µg/cm2 in data set [1] and in data set [3] was 50 to 100% each time. Also, the pest or weed control at 50 µg/cm2 in data set [1] (setting [4]) and in data set [3] (setting [5]) was 50 to 100% in each case. Moreover, in data set [2] (Yellow Fever Mosquito), the YFM rating result is “A (80–100)”. The “YFM % Control (or Mortality) rating” value in data set [2] is on record as “A (80–100)”.

Consider `CC(=O)Nc1c(F)cc(F)c(NC(=O)c2cc(NC(=O)[C@H]3[C@H](c4cc(Cl)cc(Cl)c4)C3(Cl)Cl)ccc2Cl)c1F` [F1628, N-(3-Acetamido-2,4,6-trifluorophenyl)-2-chloro-5-((1R,3R)-2,2-dichloro-3-(3,5-dichlorophenyl)cyclopropane-1-carboxamido)benzamide], for which the pest or weed control at 50 µg/cm2 in data set [1] (setting [9]) and in data set [3] (setting [11]) was 50 to 100% throughout. For the same compound, in data set [2] (setting [10]), the YFM result is recorded as “A (80–100)”.

Regarding `COCC(=O)Nc1c(F)ccc(NC(=O)c2cc(NC(=O)[C@H]3[C@H](c4cc(Cl)c(Cl)c(Cl)c4)C3(Cl)Cl)ccc2Cl)c1F` [F1646, 2-Chloro-5-((1R,3R)-2,2-dichloro-3-(3,4,5-trichlorophenyl)cyclopropane-1-carboxamido)-N-(2,4-difluoro-3-(2-methoxyacetamido)phenyl)benzamide], the pest or weed control at 50 µg/cm2 in data set [1] (setting [9]) and in data set [3] (setting [11]) was 50 to 100% each time. In addition, the YFM entry in data set [2] (setting [10]) was “A (80–100)”.

Take `Cc1c(Cl)cc(NC(=O)[C@H]2[C@H](c3ccc(F)c(Cl)c3)C2(Cl)Cl)cc1C(=O)NCCCCl` (relative stereo) [F2044, trans-3-Chloro-N-(3-chloropropyl)-5-(2,2-dichloro-3-(3-chloro-4-fluorophenyl)cyclopropane-1-carboxamido)-2-methylbenzamide]: the pest or weed control at 50 µg/cm2 in data set [1] (setting [4]) and in data set [3] (setting [5]) was 50 to 100% throughout. Besides, in data set [2] (Yellow Fever Mosquito), the YFM rating entry was “A (80–100)”.

For `Nc1c(F)ccc(NC(=O)c2cc(NC(=O)[C@H]3[C@H](c4ccc(Cl)c(Cl)c4)C3(Cl)Cl)ccc2Cl)c1F` [DP2, N-(3-Amino-2,4-difluorophenyl)-2-chloro-5-((1R,3R)-2,2-dichloro-3-(3,4-dichlorophenyl)cyclopropane-1-carboxamido)benzamide], the mortality at 50 µg/cm2 in data set [1] and in data set [3] was 50 to 100% in each case. The pest or weed control at 50 µg/cm2 in data set [1] (setting [4]) and in data set [3] (setting [5]) was 50 to 100% each time. The YFM rating result in data set [2] (Yellow Fever Mosquito) was “A (80–100)”. For the same compound, in data set [2], the “YFM % Control (or Mortality) rating” value was “A (80–100)”.

Take `O=C(CC1CC1)Nc1c(F)ccc(NC(=O)c2cc(NC(=O)[C@H]3[C@H](c4ccc(F)c(C(F)(F)F)c4)C3(Cl)Cl)ccc2Cl)c1F` [F1682, 2-Chloro-N-(3-(2-cyclopropylacetamido)-2,4-difluorophenyl)-5-((1R,3R)-2,2-dichloro-3-(4-fluoro-3-(trifluoromethyl)phenyl)cyclopropane-1-carboxamido)benzamide]: the pest or weed control at 50 µg/cm2 in data set [1] (setting [9]) and in data set [3] (setting [11]) was 50 to 100% in each case. In addition, in data set [2] (setting [10]), the YFM entry is recorded as “A (80–100)”.

Take `Cc1cc(NCc2ccc(Cl)cc2)ccc1NC(=O)c1cc(NC(=O)[C@H]2[C@H](c3cc(Cl)cc(Cl)c3)C2(Cl)Cl)ccc1Cl` (relative stereo) [F1010, trans-2-chloro-N-(4-((4-chlorobenzyl)amino)-2-methylphenyl)-5-(2,2-dichloro-3-(3,5-dichlorophenyl)cyclopropane-1-carboxamido)benzamide]: the pest or weed control at 50 µg/cm2 in data set [1] (setting [6]) and in data set [3] (setting [8]) was 50 to 100% each time. In data set [2] (setting [7]), the YFM entry is “A (80–100)”.

`CN(C(=O)c1cc(NC(=O)[C@H]2[C@H](c3ccc(F)c(C(F)(F)F)c3)C2(Cl)Cl)ccc1Cl)c1ccc(F)c(NC(=O)C2CCCO2)c1F` (stereo partly drawn) [F1798, N-(3-(2-Chloro-5-((1R,3R)-2,2-Dichloro-3-(4-fluoro-3-(trifluoromethyl)phenyl)cyclopropane-1-carboxamido)-N-methylbenzamido)-2,6-difluorophenyl)tetrahydrofuran-2-carboxamide]: the pest or weed control at 50 µg/cm2 in data set [1] (setting [4]) and in data set [3] (setting [5]) was 50 to 100% throughout. Besides, in data set [2] (Yellow Fever Mosquito), the YFM rating entry was “B (More than 0 – Less than 80)”.

In the case of `Nc1c(F)ccc(NC(=O)c2cc(NC(=O)[C@H]3[C@H](c4ccc(Br)c(C(F)(F)F)c4)C3(Cl)Cl)ccc2Cl)c1F` (relative stereo) [F1116, trans-N-(3-Amino-2,4-difluorophenyl)-5-(3-(4-bromo-3-(trifluoromethyl)phenyl)-2,2-dichlorocyclopropane-1-carboxamido)-2-chlorobenzamide], the pest or weed control at 50 µg/cm2 in data set [1] (setting [6]) and in data set [3] (setting [8]) was 50 to 100% in each case. Also, the YFM entry in data set [2] (setting [7]) is “A (80–100)”.

Consider `CN(NC(=O)c1cc(NC(=O)[C@H]2[C@H](c3ccc(F)c(Cl)c3)C2(Cl)Cl)ccc1Cl)c1ccccc1` [F2512, (1R,3R)-2,2-Dichloro-N-(4-chloro-3-(2-methyl-2-phenylhydrazine-1-carbonyl)phenyl)-3-(3-chloro-4-fluorophenyl)cyclopropane-1-carboxamide], for which the pest or weed control at 50 µg/cm2 in data set [1] (setting [4]) and in data set [3] (setting [5]) was 50 to 100% in each case. The YFM rating entry in data set [2] (Yellow Fever Mosquito) is listed as “A (80–100)”.
